Data taken from ChEMBL document CHEMBL4321834, “Glechomanamides A-C, Germacrane Sesquiterpenoids with an Unusual Δ8-7,12-Lactam Moiety from Salvia scapiformis and Their Antiangiogenic Activity” (J Nat Prod, 2019).
Activity calls are given as the source filed them.

Key:
HUVEC [1] = assay: Decrease in D-glucose-induced BMP4 mRNA expression in HUVEC at 10 uM incubated for 48 hrs in presence of […] by real time-PCR analysis; assay type: functional, cell-based; settings: Homo sapiens
HUVEC [2] = assay: Decrease in BMP4 expression in HUVEC at 1 to 100 uM preincubated for 30 mins followed by incubation with VEGF for 20 mins by Western blot analysis; assay type: functional, cell-based; settings: Homo sapiens
[3] = biological target: Vascular endothelial growth factor receptor 2 (Homo sapiens) (UniProt P35968); assay: Inhibition of VEGFR2 in HUVEC assessed as inhibition of VEGF-induced tube formation incubated for 8 hrs by inverted microscopic method; assay type: cell-based
Vascular endothelial growth factor receptor 2 (Homo sapiens), sequence (P35968 whole entry): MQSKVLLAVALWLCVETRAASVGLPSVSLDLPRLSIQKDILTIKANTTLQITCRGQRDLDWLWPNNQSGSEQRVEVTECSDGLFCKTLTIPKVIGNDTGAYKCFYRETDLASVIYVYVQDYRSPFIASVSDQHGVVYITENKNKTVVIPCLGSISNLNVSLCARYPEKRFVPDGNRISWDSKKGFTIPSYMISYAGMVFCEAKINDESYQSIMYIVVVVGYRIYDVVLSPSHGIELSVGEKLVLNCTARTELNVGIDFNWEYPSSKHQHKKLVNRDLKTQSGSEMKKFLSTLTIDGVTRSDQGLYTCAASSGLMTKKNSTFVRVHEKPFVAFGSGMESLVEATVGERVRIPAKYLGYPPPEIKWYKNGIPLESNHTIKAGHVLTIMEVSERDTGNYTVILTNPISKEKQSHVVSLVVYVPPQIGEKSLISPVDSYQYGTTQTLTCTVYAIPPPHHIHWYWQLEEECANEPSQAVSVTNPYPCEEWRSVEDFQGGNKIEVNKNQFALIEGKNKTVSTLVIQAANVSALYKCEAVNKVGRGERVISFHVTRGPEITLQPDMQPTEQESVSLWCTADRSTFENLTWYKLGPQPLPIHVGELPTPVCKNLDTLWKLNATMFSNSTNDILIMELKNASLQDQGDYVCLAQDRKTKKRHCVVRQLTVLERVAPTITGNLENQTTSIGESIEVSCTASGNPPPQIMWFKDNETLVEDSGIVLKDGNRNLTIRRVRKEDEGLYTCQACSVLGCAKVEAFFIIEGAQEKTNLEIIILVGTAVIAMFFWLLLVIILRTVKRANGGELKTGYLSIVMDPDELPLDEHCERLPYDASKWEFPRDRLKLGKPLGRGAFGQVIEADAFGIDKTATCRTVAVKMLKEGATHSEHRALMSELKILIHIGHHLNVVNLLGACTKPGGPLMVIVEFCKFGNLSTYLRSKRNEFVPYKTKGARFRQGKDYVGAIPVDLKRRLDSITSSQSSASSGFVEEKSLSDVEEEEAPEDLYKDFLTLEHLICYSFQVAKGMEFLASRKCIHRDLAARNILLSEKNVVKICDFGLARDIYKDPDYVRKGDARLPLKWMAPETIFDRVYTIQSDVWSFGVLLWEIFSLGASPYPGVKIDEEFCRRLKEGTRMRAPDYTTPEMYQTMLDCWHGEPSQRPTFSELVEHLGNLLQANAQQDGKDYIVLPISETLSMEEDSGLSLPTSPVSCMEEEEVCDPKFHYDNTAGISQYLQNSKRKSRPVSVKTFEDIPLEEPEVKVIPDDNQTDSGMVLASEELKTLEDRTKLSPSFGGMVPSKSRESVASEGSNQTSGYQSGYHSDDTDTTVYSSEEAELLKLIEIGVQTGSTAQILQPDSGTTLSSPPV

[4] = biological target: Vascular endothelial growth factor receptor 2 (Homo sapiens) (UniProt P35968); assay: Inhibition of VEGF-induced VEGFR2 phosphorylation in HUVEC at 1 to 100 uM preincubated for 30 mins followed by stimulation with VEGF for 20 mins by Western blot analysis; assay type: cell-based
HUVEC [5] = assay: Decrease in GLUT1 expression in HUVEC at 1 to 100 uM preincubated for 30 mins followed by incubation with VEGF for 20 mins by Western blot analysis; assay type: functional, cell-based; settings: Homo sapiens
HUVEC [6] = assay: Decrease in HK2 expression in HUVEC at 1 to 100 uM preincubated for 30 mins followed by incubation with VEGF for 20 mins by Western blot analysis; assay type: functional, cell-based; settings: Homo sapiens
HUVEC [7] = assay: Decrease in total VEGF expression in HUVEC at 1 to 100 uM preincubated for 30 mins followed by incubation with VEGF for 20 mins by Western blot analysis; assay type: functional, cell-based; settings: Homo sapiens
[8] = biological target: Vascular endothelial growth factor receptor 2 (Homo sapiens) (UniProt P35968); assay: Inhibition of VEGFR2 in HUVEC assessed as inhibition of VEGF-induced tube formation at 80 uM incubated for 8 hrs by inverted microscopic method; assay type: cell-based
HUVEC [9] = assay: Decrease in D-glucose-induced ANGPT2 mRNA expression in HUVEC at 10 uM incubated for 48 hrs in presence of […] by real time-PCR analysis; assay type: functional, cell-based; settings: Homo sapiens
HUVEC [10] = assay: Decrease in D-glucose-induced ANGPT2 mRNA expression in HUVEC at 500 uM incubated for 48 hrs in presence of […] by real time-PCR analysis; assay type: functional, cell-based; settings: Homo sapiens
HUVEC [11] = assay: Decrease in D-glucose-induced BMP4 mRNA expression in HUVEC at 500 uM incubated for 48 hrs in presence of […] by real time-PCR analysis; assay type: functional, cell-based; settings: Homo sapiens

Measured: inhibition

C/C=C(\C)C(=O)O[C@@H]1C2=C(C)C(=O)N[C@]2(O)C[C@@]2(C)O[C@@H]2CC[C@@]2(C)O[C@H]12
active: HUVEC [1] | HUVEC [2] | [3] Dose-dependent effect | [4] | HUVEC [5] | HUVEC [6] | HUVEC [7] | [8] | HUVEC [9]

CN(C)C(=N)NC(=N)N
active: HUVEC [10] | HUVEC [11]
